# In patent US20190388425A1, “SUBSTITUTED IMIDAZOPYRIDINPYRIMIDINES” (Bayer Pharma Aktiengesellschaft, priority 2017, published 2019):
# Target: T1, human full-length MKNK1 (Homo sapiens, UniProt Q9BUB5, T385D)
# T1 construct: GST (N); purchased Carna Biosciences 02-145; host or cells: insect cells (baculovirus expression system)
# Assay: MKNK1 kinase high ATP assay (TR-FRET)
# Assay type: biochemical
# Conditions: TR-FRET, 2 mM ATP (high ATP), 15 min preincubation with enzyme, 30 min reaction at 22° C.; read-out: MKNK1 IC50
# Experimental: MKNK1 Kinase High ATP Assay
# MKNK1-inhibitory activity at high ATP of compounds of the present invention after their preincubation with MKNK1 was quantified employing the TR-FRET-based MKNK1 high ATP assay as described in the following paragraphs.
# As substrate for the kinase reaction the biotinylated peptide biotin-Ahx-[…] (C-terminus in amide form) was used, which can be purchased e.g. from the company Biosyntan (Berlin-Buch, Germany).
# For the assay 50 nL of a 100 fold concentrated solution of the test compound in DMSO was pipetted into a black low volume 384 well microtiter plate (Greiner Bio-One, Frickenhausen, Germany), 2 μL of a solution of MKNK1 in aqueous assay buffer [50 mM HEPES pH 7.5, 5 mM MgCl2, 1.0 mM dithiothreitol, 0.005% (v/v) Nonidet-P40 (Sigma)] was added and the mixture was incubated for 15 min at 22° C. to allow pre-binding of the test compounds to the enzyme before the start of the kinase reaction. Then the kinase reaction was started by the addition of 3 μL of a solution of adenosine-tri-phosphate (ATP, 3.3 mM=>final conc. in the 5 μL assay volume is 2 mM) and substrate (0.1 μM=>final conc. in the 5 μL assay volume is 0.06 μM) in assay buffer and the resulting mixture was incubated for a reaction time of 30 min at 22° C. The concentration of MKNK1 was adjusted depending of the activity of the enzyme lot and was chosen appropriate to have the assay in the linear range, typical concentrations were in the range of 0.003 μg/mL. The reaction was stopped by the addition of 5 μL of a solution of TR-FRET detection reagents (5 nM streptavidine-XL665 [Cisbio Bioassays, Codolet, France] and 1 nM anti-ribosomal protein S6 (pSer236)-antibody from Invitrogen [#44921G] and 1 nM LANCE EU-W1024 labeled ProteinG [Perkin-Elmer, product no. AD0071]) in an aqueous EDTA-solution (100 mM EDTA, 0.1% (w/v) bovine serum albumin in 50 mM HEPES pH 7.5).
# The resulting mixture was incubated for 1 h at 22° C. to allow the formation of complex between the phosphorylated biotinylated peptide and the detection reagents. Subsequently the amount of phosphorylated substrate was evaluated by measurement of the resonance energy transfer from the Eu-chelate to the streptavidine-XL. Therefore, the fluorescence emissions at 620 nm and 665 nm after excitation at 350 nm were measured in a TR-FRET reader, e.g. a Rubystar (BMG Labtechnologies, Offenburg, Germany) or a Viewlux (Perkin-Elmer). The ratio of the emissions at 665 nm and at 622 nm was taken as the measure for the amount of phosphorylated substrate.
# T1 sequence (Q9BUB5 1-424 isoform Q9BUB5-2 T344D): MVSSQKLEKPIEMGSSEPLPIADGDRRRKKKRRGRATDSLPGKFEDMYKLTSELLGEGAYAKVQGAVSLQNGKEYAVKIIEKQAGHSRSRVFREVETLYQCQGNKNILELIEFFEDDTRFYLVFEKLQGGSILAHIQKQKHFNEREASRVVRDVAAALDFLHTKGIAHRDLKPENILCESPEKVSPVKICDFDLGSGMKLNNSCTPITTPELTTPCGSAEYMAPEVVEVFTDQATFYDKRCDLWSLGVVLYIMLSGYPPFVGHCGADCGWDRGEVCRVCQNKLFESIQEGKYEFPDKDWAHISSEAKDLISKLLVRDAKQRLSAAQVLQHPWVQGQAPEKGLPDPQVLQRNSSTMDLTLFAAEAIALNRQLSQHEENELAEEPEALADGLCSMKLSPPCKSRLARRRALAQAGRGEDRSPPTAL
row,IC50,SMILES
1,3.3 nM,"Cc1cc(Nc2ncnc3sc4c(c23)CC[C@H](C(=O)N2CC(C#N)C2)C4)c(=O)n2c1C(=O)NC21CCCC1 [Example 39, 1-({(7S)-4-[(8′-Methyl-1′,5′-dioxo-1′,5′-dihydro-2′H-spiro[cyclopentane-1,3′-imidazo[1,5-a]pyridin]-6′-yl)amino]-5,6,7,8-tetrahydro[1]benzothieno[2,3-d]pyrimidin-7-yl}carbonyl)azetidine-3-carbonitrile]"
2,0.3 nM,"Cc1cc(Nc2ncnc3sc4c(c23)CC[C@H](C(=O)N2CC(N(C)C)C2)C4)c(=O)n2c1C(=O)NC21CCCC1 [Example 40, 6′-{[(7S)-7-{[3-(Dimethylamino)azetidin-1-yl]carbonyl}-5,6,7,8-tetrahydro[1]benzothieno[2,3-d]pyrimidin-4-yl]amino}-8′-methyl-2′H-spiro[cyclopentane-1,3′-imidazo[1,5-a]pyridine]-1′,5′-dione]"
3,1.2 nM,"Cc1cc(Nc2ncnc3sc4c(c23)CC[C@H](C(=O)N2CC[C@H](N(C)C)C2)C4)c(=O)n2c1C(=O)NC21CCCC1 [Example 41, 6′-{[(7S)-7-{[(3S)-3-(Dimethylamino)pyrrolidin-1-yl]carbonyl}-5,6,7,8-tetrahydro[1]benzothieno[2,3-d]pyrimidin-4-yl]amino}-8′-methyl-2′H-spiro[cyclopentane-1,3′-imidazo[1,5-a]pyridine]-1′,5′-dione]"
4,24.5 nM,"Cc1cc(Nc2ncnc3sc4c(c23)CC[C@H](C(=O)O)C4)c(=O)n2c1C(=O)NC21CCC(F)(F)CC1 [Example 42, (7S)-4-[(4,4-Difluoro-8′-methyl-1′,5′-dioxo-1′,5′-dihydro-2′H-spiro[cyclohexane-1,3′-imidazo[1,5-a]pyridin]-6′-yl)amino]-5,6,7,8-tetrahydro[1]benzothieno[2,3-d]pyrimidine-7-carboxylic acid]"
5,9.9 nM,"Cc1cc(Nc2ncnc3sc4c(c23)CCCC4)c(=O)n2c1C(=O)NC21CCCCC1 [Example 43, 8′-Methyl-6′-(5,6,7,8-tetrahydro[1]benzothieno[2,3-d]pyrimidin-4-ylamino)-2′H-spiro[cyclohexane-1,3′-imidazo[1,5-a]pyridine]-1′,5′-dione]"
6,17.4 nM,"Cc1cc(Nc2ncnc3sc4c(c23)CC[C@H](C(=O)O)C4)c(=O)n2c1C(=O)NC21CSC1 [Example 44, (7S)-4-[(8-Methyl-1,5-dioxo-1,5-dihydro-2H-spiro[imidazo[1,5-a]pyridine-3,3′-thietan]-6-yl)amino]-5,6,7,8-tetrahydro[1]benzothieno[2,3-d]pyrimidine-7-carboxylic acid]"
7,0.6 nM,"Cc1cc(Nc2ncnc3sc4c(c23)CC[C@H](C(=O)N(C)C)C4)c(=O)n2c1C(=O)NC21CSC1 [Example 45, (7S)—N,N-Dimethyl-4-[(8-methyl-1,5-dioxo-1,5-dihydro-2H-spiro[imidazo[1,5-a]pyridine-3,3′-thietan]-6-yl)amino]-5,6,7,8-tetrahydro[1]benzothieno[2,3-d]pyrimidine-7-carboxamide]"
8,0.6 nM,"Cc1cc(Nc2ncnc3sc4c(c23)CC[C@H](C(=O)N2CCC2)C4)c(=O)n2c1C(=O)NC21CSC1 [Example 46, 6-{[(7S)-7-(Azetidin-1-ylcarbonyl)-5,6,7,8-tetrahydro[1]benzothieno[2,3-d]pyrimidin-4-yl]amino}-8-methyl-2H-spiro[imidazo[1,5-a]pyridine-3,3′-thietane]-1,5-dione]"
9,0.8 nM,"Cc1cc(Nc2ncnc3sc4c(c23)CC[C@H](C(=O)N2CC(C#N)C2)C4)c(=O)n2c1C(=O)NC21CSC1 [Example 47, 1-({(7S)-4-[(8-Methyl-1,5-dioxo-1,5-dihydro-2H-spiro[imidazo[1,5-a]pyridine-3,3′-thietan]-6-yl)amino]-5,6,7,8-tetrahydro[1]benzothieno[2,3-d]pyrimidin-7-yl}carbonyl)azetidine-3-carbonitrile]"
10,0.4 nM,"Cc1cc(Nc2ncnc3sc4c(c23)CC[C@H](C(=O)N2CC(N(C)C)C2)C4)c(=O)n2c1C(=O)NC21CSC1 [Example 48, 6-{[(7S)-7-{[3-(Dimethylamino)azetidin-1-yl]carbonyl}-5,6,7,8-tetrahydro[1]benzothieno[2,3-d]pyrimidin-4-yl]amino}-8-methyl-2H-spiro[imidazo[1,5-a]pyridine-3,3′-thietane]-1,5-dione]"
11,0.5 nM,"Cc1cc(Nc2ncnc3sc4c(c23)CC[C@H](C(=O)N2CC[C@H](N(C)C)C2)C4)c(=O)n2c1C(=O)NC21CSC1 [Example 49, 6-{[(7S)-7-{[(3S)-3-(Dimethylamino)pyrrolidin-1-yl]carbonyl}-5,6,7,8-tetrahydro[1]benzothieno[2,3-d]pyrimidin-4-yl]amino}-8-methyl-2H-spiro[imidazo[1,5-a]pyridine-3,3′-thietane]-1,5-dione]"
12,0.3 nM,"Cc1cc(Nc2ncnc3sc4c(c23)CC[C@H](C(=O)N2CCN(C)[C@H](C)C2)C4)c(=O)n2c1C(=O)NC21CSC1 [Example 50, 6-{[(7S)-7-{[(3R)-3,4-dimethylpiperazin-1-yl]carbonyl}-5,6,7,8-tetrahydro[1]benzothieno[2,3-d]pyrimidin-4-yl]amino}-8-methyl-2H-spiro[imidazo[1,5-a]pyridine-3,3′-thietane]-1,5-dione]"
13,0.4 nM,"Cc1cc(Nc2ncnc3sc4c(c23)CC[C@H](C(=O)N2C[C@H]3C[C@@H]2CO3)C4)c(=O)n2c1C(=O)NC21CSC1 [Example 51, 8-Methyl-6-({(7S)-7-[(1R,4R)-2-oxa-5-azabicyclo[2.2.1]hept-5-ylcarbonyl]-5,6,7,8-tetrahydro[1]benzothieno[2,3-d]pyrimidin-4-yl}amino)-2H-spiro[imidazo[1,5-a]pyridine-3,3′-thietane]-1,5-dione]"
14,0.6 nM,"Cc1cc(Nc2ncnc3sc4c(c23)CC[C@H](C(=O)N(C)C)C4)c(=O)n2c1C(=O)NC21CCC(F)(F)CC1 [Example 52, (7S)-4-[(4,4-Difluoro-8′-methyl-1′,5′-dioxo-1′,5′-dihydro-2′H-spiro[cyclohexane-1,3′-imidazo[1,5-a]pyridin]-6′-yl)amino]-N,N-dimethyl-5,6,7,8-tetrahydro[1]benzothieno[2,3-d]pyrimidine-7-carboxamide]"
15,13.5 nM,"Cc1cc(Nc2ncnc3sc4c(c23)CC[C@H](C(=O)N2CCC2)C4)c(=O)n2c1C(=O)NC21CCC(F)(F)CC1 [Example 53, 6′-{[(7S)-7-(Azetidin-1-ylcarbonyl)-5,6,7,8-tetrahydro[1]benzothieno[2,3-d]pyrimidin-4-yl]amino}-4,4-difluoro-8′-methyl-2′H-spiro[cyclohexane-1,3′-imidazo[1,5-a]pyridine]-1′,5′-dione]"
16,4.4 nM,"Cc1cc(Nc2ncnc3sc4c(c23)CC[C@H](C(=O)N2CC(C#N)C2)C4)c(=O)n2c1C(=O)NC21CCC(F)(F)CC1 [Example 54, 1-({(7S)-4-[(4,4-Difluoro-8′-methyl-1′,5′-dioxo-1′,5′-dihydro-2′H-spiro[cyclohexane-1,3′-imidazo[1,5-a]pyridin]-6′-yl)amino]-5,6,7,8-tetrahydro[1]benzothieno[2,3-d]pyrimidin-7-yl}carbonyl)azetidine-3-carbonitrile]"
17,0.6 nM,"Cc1cc(Nc2ncnc3sc4c(c23)CC[C@H](C(=O)N2CC(N(C)C)C2)C4)c(=O)n2c1C(=O)NC21CCC(F)(F)CC1 [Example 55, 6′-{[(7S)-7-{[3-(Dimethylamino)azetidin-1-yl]carbonyl}-5,6,7,8-tetrahydro[1]benzothieno[2,3-d]pyrimidin-4-yl]amino}-4,4-difluoro-8′-methyl-2′H-spiro[cyclohexane-1,3′-imidazo[1,5-a]pyridine]-1′,5′-dione]"
